# According to US20060110451A1, “Formulations of [1,4]diazepino[6,7,1-IJ]quinoline derivatives” (priority 2004, published 2006):
# Where two headings read alike, the source gives them in different places.
# Legend:
# 5-HT2C = target: T1, 5-HT2C (Homo sapiens, UniProt P28335); conditions: cited from earlier work
# T1 sequence (P28335 33-458): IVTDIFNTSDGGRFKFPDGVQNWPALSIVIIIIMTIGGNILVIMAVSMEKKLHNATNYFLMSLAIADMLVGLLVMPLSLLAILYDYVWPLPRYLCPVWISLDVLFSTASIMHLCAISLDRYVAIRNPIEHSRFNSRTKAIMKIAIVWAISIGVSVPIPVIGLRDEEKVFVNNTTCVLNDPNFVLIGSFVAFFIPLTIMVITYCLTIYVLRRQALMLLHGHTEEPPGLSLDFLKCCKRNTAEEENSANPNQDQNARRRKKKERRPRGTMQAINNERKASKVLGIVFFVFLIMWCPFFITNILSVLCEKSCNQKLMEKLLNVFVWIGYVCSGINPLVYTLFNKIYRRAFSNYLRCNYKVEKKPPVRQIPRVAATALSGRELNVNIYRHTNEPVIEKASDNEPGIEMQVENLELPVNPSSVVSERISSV
# [1] = Ascending multiple dose pharmacokinetics of enteric coated capsules in healthy subjects; type: in vivo, human; conditions: for Tmax / half-life / AUC(0-t) / Cmax / AUC(0-inf): human, plasma
# Protocol: Ascending multiple doses of 25, 50, 75, 100, 150, and 250 mg Compound A.HCl were administered as twice-daily regimen (q12h) for 14 days in cohorts of 8 healthy subjects (6 active and 2 placebo). Blood samples for Compound A.HCl analysis were obtained on days 1 and 14 within 2 hours of test article administration and at various time points from 0.5 to 48 hours after test article administration. Doses were administered orally after an overnight fast of at least 10 hours on these 2 days. Trough PK samples were collected on days 7, 10, and 12 to assess whether steady-state had been reached.
# A total of 48 subjects contributed pharmacokinetic data for this analysis. […] FIGS. 4A and 4B show the relationship between Cmax vs. dose and AUC vs. dose, respectively.
smiles,measurement,setting,value
"Cl.c1cc2c3c(c1)[C@H]1CCC[C@H]1CN3CCNC2 [Compound A.HCl, (9aR,12aS)-4,5,6,7,9,9a,10,11,12,12a-decahydrocyclopenta[c][1,4]diazepino[6,7,1-ij]quinoline hydrochloride]",5-HT2C agonist activity,5-HT2C,potent 5-HT2C agonist
same,steady-state Cl/F lower in comparison to the lower dose groups,[1]; 250 mg q12h dose,54-60%
same,time of minor secondary peak,"[1]; day 14 (steady state), most subjects, all dose groups",24 to 28 h
same,dose-proportionality of single dose and steady-state AUC and Cmax,[1]; dose range 25 to 150 mg q12h,approximately linear dose-proportionality
same,Tmax,"[1]; oral, healthy subjects, single and multiple dose administration, enteric-coated formulation, 25-250 mg, read-out: mean Tmax",4 to 6 h
same,half-life,"[1]; oral, multiple dose, read-out: mean elimination t1/2",6 to 8 h
same,half-life,"[1]; oral, single dose, read-out: mean elimination t1/2",8 to 11 h
same,AUC(0-t),"[1]; po, 25 mg, healthy subjects, multiple oral doses (q12 h) 25 mg, day 14, read-out: AUCss (AUC0-12) (Geom. Mean)",8 ng·h/mL
same,AUC(0-t),"[1]; po, 25 mg, healthy subjects, multiple oral doses (q12 h) 25 mg, day 14, read-out: AUCss (AUC0-12) (Mean)",~8.73 ng·h/mL
same,Cmax,"[1]; po, 25 mg, healthy subjects, multiple oral doses (q12 h) 25 mg, day 14, read-out: Cmax (Geom. Mean)",1.16 ng/mL
same,Cmax,"[1]; po, 25 mg, healthy subjects, multiple oral doses (q12 h) 25 mg, day 14, read-out: Cmax (Mean)",1.22 ng/mL
same,Tmax,"[1]; po, 25 mg, healthy subjects, multiple oral doses (q12 h) 25 mg, day 14, read-out: Tmax (Geom. Mean)",3.7 h
same,Tmax,"[1]; po, 25 mg, healthy subjects, multiple oral doses (q12 h) 25 mg, day 14, read-out: Tmax (Mean)",4 h
same,half-life,"[1]; po, 25 mg, healthy subjects, multiple oral doses (q12 h) 25 mg, day 14, read-out: t1/2 (Geom. Mean) (converted)",6.25 h
same,half-life,"[1]; po, 25 mg, healthy subjects, multiple oral doses (q12 h) 25 mg, day 14, read-out: t1/2 (Mean) (converted)",6.35 h
same,Cmax,"[1]; po, 25 mg, healthy subjects, single oral dose 25 mg, day 1, read-out: Cmax (Geom. Mean)",0.81 ng/mL
same,Cmax,"[1]; po, 25 mg, healthy subjects, single oral dose 25 mg, day 1, read-out: Cmax (Mean)",0.87 ng/mL
same,Tmax,"[1]; po, 25 mg, healthy subjects, single oral dose 25 mg, day 1, read-out: Tmax (Geom. Mean)",5 h
same,Tmax,"[1]; po, 25 mg, healthy subjects, single oral dose 25 mg, day 1, read-out: Tmax (Mean)",5.2 h
same,AUC(0-t),"[1]; po, 50 mg, healthy subjects, multiple oral doses (q12 h) 50 mg, day 14, read-out: AUCss (AUC0-12) (Geom. Mean)",25.3 ng·h/mL
same,AUC(0-t),"[1]; po, 50 mg, healthy subjects, multiple oral doses (q12 h) 50 mg, day 14, read-out: AUCss (AUC0-12) (Mean)",~26.5 ng·h/mL
same,Cmax,"[1]; po, 50 mg, healthy subjects, multiple oral doses (q12 h) 50 mg, day 14, read-out: Cmax (Geom. Mean)",3.27 ng/mL
same,Cmax,"[1]; po, 50 mg, healthy subjects, multiple oral doses (q12 h) 50 mg, day 14, read-out: Cmax (Mean)",3.39 ng/mL
same,Tmax,"[1]; po, 50 mg, healthy subjects, multiple oral doses (q12 h) 50 mg, day 14, read-out: Tmax (Geom. Mean)",5.6 h
same,Tmax,"[1]; po, 50 mg, healthy subjects, multiple oral doses (q12 h) 50 mg, day 14, read-out: Tmax (Mean)",5.7 h
same,half-life,"[1]; po, 50 mg, healthy subjects, multiple oral doses (q12 h) 50 mg, day 14, read-out: t1/2 (Geom. Mean) (converted)",7.58 h
same,half-life,"[1]; po, 50 mg, healthy subjects, multiple oral doses (q12 h) 50 mg, day 14, read-out: t1/2 (Mean) (converted)",7.64 h
same,AUC(0-inf),"[1]; po, 50 mg, healthy subjects, single oral dose 50 mg, day 1, read-out: AUC0-∞ (Geom. Mean)",22.8 ng·h/mL
same,AUC(0-inf),"[1]; po, 50 mg, healthy subjects, single oral dose 50 mg, day 1, read-out: AUC0-∞ (Mean)",23.5 ng·h/mL
same,Cmax,"[1]; po, 50 mg, healthy subjects, single oral dose 50 mg, day 1, read-out: Cmax (Geom. Mean)",2.29 ng/mL
same,Cmax,"[1]; po, 50 mg, healthy subjects, single oral dose 50 mg, day 1, read-out: Cmax (Mean)",2.35 ng/mL
same,Tmax,"[1]; po, 50 mg, healthy subjects, single oral dose 50 mg, day 1, read-out: Tmax (Geom. Mean)",5 h
same,Tmax,"[1]; po, 50 mg, healthy subjects, single oral dose 50 mg, day 1, read-out: Tmax (Mean)",5.3 h
same,half-life,"[1]; po, 50 mg, healthy subjects, single oral dose 50 mg, day 1, read-out: t1/2 (Geom. Mean) (converted)",9.69 h
same,half-life,"[1]; po, 50 mg, healthy subjects, single oral dose 50 mg, day 1, read-out: t1/2 (Mean) (converted)",10.7 h
same,AUC(0-t),"[1]; po, 75 mg, healthy subjects, multiple oral doses (q12 h) 75 mg, day 14, read-out: AUCss (AUC0-12) (Geom. Mean)",24.1 ng·h/mL
same,AUC(0-t),"[1]; po, 75 mg, healthy subjects, multiple oral doses (q12 h) 75 mg, day 14, read-out: AUCss (AUC0-12) (Mean)",~24.9 ng·h/mL
same,Cmax,"[1]; po, 75 mg, healthy subjects, multiple oral doses (q12 h) 75 mg, day 14, read-out: Cmax (Geom. Mean)",2.92 ng/mL
same,Cmax,"[1]; po, 75 mg, healthy subjects, multiple oral doses (q12 h) 75 mg, day 14, read-out: Cmax (Mean)",3.05 ng/mL
same,Tmax,"[1]; po, 75 mg, healthy subjects, multiple oral doses (q12 h) 75 mg, day 14, read-out: Tmax (Geom. Mean)",6.3 h
same,Tmax,"[1]; po, 75 mg, healthy subjects, multiple oral doses (q12 h) 75 mg, day 14, read-out: Tmax (Mean)",6.3 h
same,half-life,"[1]; po, 75 mg, healthy subjects, multiple oral doses (q12 h) 75 mg, day 14, read-out: t1/2 (Geom. Mean) (converted)",6.38 h
same,half-life,"[1]; po, 75 mg, healthy subjects, multiple oral doses (q12 h) 75 mg, day 14, read-out: t1/2 (Mean) (converted)",6.45 h
same,AUC(0-inf),"[1]; po, 75 mg, healthy subjects, single oral dose 75 mg, day 1, read-out: AUC0-∞ (Geom. Mean)",16.8 ng·h/mL
same,AUC(0-inf),"[1]; po, 75 mg, healthy subjects, single oral dose 75 mg, day 1, read-out: AUC0-∞ (Mean)",16.9 ng·h/mL
same,Cmax,"[1]; po, 75 mg, healthy subjects, single oral dose 75 mg, day 1, read-out: Cmax (Geom. Mean)",1.56 ng/mL
same,Cmax,"[1]; po, 75 mg, healthy subjects, single oral dose 75 mg, day 1, read-out: Cmax (Mean)",1.6 ng/mL
same,Tmax,"[1]; po, 75 mg, healthy subjects, single oral dose 75 mg, day 1, read-out: Tmax (Geom. Mean)",5.3 h
same,Tmax,"[1]; po, 75 mg, healthy subjects, single oral dose 75 mg, day 1, read-out: Tmax (Mean)",5.5 h
